Values after ≈ are worked out from the molar mass of the structure shown.
Columns and labels:
Assay type in all cases: functional
Streptococcus pyogenes [1] = test: Antimicrobial activity against Streptococcus pyogenes MTCC 442 assessed as diameter of growth inhibition zone at 250 ug/ml after 18-24 hr by agar cup diffusion method; conditions: read-out: DIZ
Staphylococcus aureus [2] = test: Antimicrobial activity against Staphylococcus aureus MTCC 96 assessed as diameter of growth inhibition zone at 100 ug/ml after 18-24 hr by agar cup diffusion method; conditions: read-out: DIZ
Streptococcus pyogenes [3] = test: Antimicrobial activity against Streptococcus pyogenes MTCC 442 by agar cup diffusion method
Escherichia coli [4] = test: Antimicrobial activity against Escherichia coli MTCC 443 assessed as diameter of growth inhibition zone at 25 ug/ml after 18-24 hr by agar cup diffusion method; conditions: read-out: DIZ
Klebsiella pneumoniae [5] = test: Antimicrobial activity against Klebsiella pneumoniae MTCC 109 assessed as diameter of growth inhibition zone at 100 ug/ml after 18-24 hr by agar cup diffusion method; conditions: read-out: DIZ
Penicillium [6] = test: Antimicrobial activity against Penicillium wild strain assessed as diameter of growth inhibition zone at 250 ug/ml after 48-96 hr by agar cup diffusion method; conditions: read-out: DIZ
Klebsiella pneumoniae [7] = test: Antimicrobial activity against Klebsiella pneumoniae MTCC 109 assessed as diameter of growth inhibition zone at 25 ug/ml after 18-24 hr by agar cup diffusion method; conditions: read-out: DIZ
Klebsiella pneumoniae [8] = test: Antimicrobial activity against Klebsiella pneumoniae MTCC 109 by agar cup diffusion method
Escherichia coli [9] = test: Antimicrobial activity against Escherichia coli MTCC 443 assessed as diameter of growth inhibition zone at 50 ug/ml after 18-24 hr by agar cup diffusion method; conditions: read-out: DIZ
Aspergillus clavatus [10] = test: Antimicrobial activity against Aspergillus clavatus MTCC 1323 assessed as diameter of growth inhibition zone at 250 ug/ml after 48-96 hr by agar cup diffusion method; conditions: read-out: DIZ
Escherichia coli [11] = test: Antimicrobial activity against Escherichia coli MTCC 443 by agar cup diffusion method
Pseudomonas aeruginosa [12] = test: Antimicrobial activity against Pseudomonas aeruginosa MTCC 1688 assessed as diameter of growth inhibition zone at 50 ug/ml after 18-24 hr by agar cup diffusion method; conditions: read-out: DIZ
Candida albicans [13] = test: Antimicrobial activity against Candida albicans MTCC 227 assessed as diameter of growth inhibition zone at 25 ug/ml after 48-96 hr by agar cup diffusion method; conditions: read-out: DIZ
Streptococcus pyogenes [14] = test: Antimicrobial activity against Streptococcus pyogenes MTCC 442 assessed as diameter of growth inhibition zone at 50 ug/ml after 18-24 hr by agar cup diffusion method; conditions: read-out: DIZ
Klebsiella pneumoniae [15] = test: Antimicrobial activity against Klebsiella pneumoniae MTCC 109 assessed as diameter of growth inhibition zone at 50 ug/ml after 18-24 hr by agar cup diffusion method; conditions: read-out: DIZ
Staphylococcus aureus [16] = test: Antimicrobial activity against Staphylococcus aureus MTCC 96 assessed as diameter of growth inhibition zone at 25 ug/ml after 18-24 hr by agar cup diffusion method; conditions: read-out: DIZ
Escherichia coli [17] = test: Antimicrobial activity against Escherichia coli MTCC 443 assessed as diameter of growth inhibition zone at 100 ug/ml after 18-24 hr by agar cup diffusion method; conditions: read-out: DIZ
Klebsiella pneumoniae [18] = test: Antimicrobial activity against Klebsiella pneumoniae MTCC 109 assessed as diameter of growth inhibition zone at 250 ug/ml after 18-24 hr by agar cup diffusion method; conditions: read-out: DIZ
Streptococcus pyogenes [19] = test: Antimicrobial activity against Streptococcus pyogenes MTCC 442 assessed as diameter of growth inhibition zone at 25 ug/ml after 18-24 hr by agar cup diffusion method; conditions: read-out: DIZ
Penicillium [20] = test: Antimicrobial activity against Penicillium wild strain assessed as diameter of growth inhibition zone at 100 ug/ml after 48-96 hr by agar cup diffusion method; conditions: read-out: DIZ
Pseudomonas aeruginosa [21] = test: Antimicrobial activity against Pseudomonas aeruginosa MTCC 1688 by agar cup diffusion method
Aspergillus clavatus [22] = test: Antimicrobial activity against Aspergillus clavatus MTCC 1323 assessed as diameter of growth inhibition zone at 25 ug/ml after 48-96 hr by agar cup diffusion method; conditions: read-out: DIZ
Escherichia coli [23] = test: Antimicrobial activity against Escherichia coli MTCC 443 assessed as diameter of growth inhibition zone at 250 ug/ml after 18-24 hr by agar cup diffusion method; conditions: read-out: DIZ
Streptococcus pyogenes [24] = test: Antimicrobial activity against Streptococcus pyogenes MTCC 442 assessed as diameter of growth inhibition zone at 100 ug/ml after 18-24 hr by agar cup diffusion method; conditions: read-out: DIZ
Trichophyton rubrum [25] = test: Antimicrobial activity against Trichophyton rubrum MTCC 296 assessed as diameter of growth inhibition zone at 50 ug/ml after 48-96 hr by agar cup diffusion method; conditions: read-out: DIZ
Candida albicans [26] = test: Antimicrobial activity against Candida albicans MTCC 227 assessed as diameter of growth inhibition zone at 100 ug/ml after 48-96 hr by agar cup diffusion method; conditions: read-out: DIZ
Pseudomonas aeruginosa [27] = test: Antimicrobial activity against Pseudomonas aeruginosa MTCC 1688 assessed as diameter of growth inhibition zone at 250 ug/ml after 18-24 hr by agar cup diffusion method; conditions: read-out: DIZ
Staphylococcus aureus [28] = test: Antimicrobial activity against Staphylococcus aureus MTCC 96 assessed as diameter of growth inhibition zone at 50 ug/ml after 18-24 hr by agar cup diffusion method; conditions: read-out: DIZ
Pseudomonas aeruginosa [29] = test: Antimicrobial activity against Pseudomonas aeruginosa MTCC 1688 assessed as diameter of growth inhibition zone at 25 ug/ml after 18-24 hr by agar cup diffusion method; conditions: read-out: DIZ
Penicillium [30] = test: Antimicrobial activity against Penicillium wild strain assessed as diameter of growth inhibition zone at 25 ug/ml after 48-96 hr by agar cup diffusion method; conditions: read-out: DIZ
Staphylococcus aureus [31] = test: Antimicrobial activity against Staphylococcus aureus MTCC 96 assessed as diameter of growth inhibition zone at 250 ug/ml after 18-24 hr by agar cup diffusion method; conditions: read-out: DIZ
Trichophyton rubrum [32] = test: Antimicrobial activity against Trichophyton rubrum MTCC 296 assessed as diameter of growth inhibition zone at 100 ug/ml after 48-96 hr by agar cup diffusion method; conditions: read-out: DIZ
Penicillium [33] = test: Antimicrobial activity against Penicillium wild strain by agar cup diffusion method
Trichophyton rubrum [34] = test: Antimicrobial activity against Trichophyton rubrum MTCC 296 by agar cup diffusion method
Candida albicans [35] = test: Antimicrobial activity against Candida albicans MTCC 227 assessed as diameter of growth inhibition zone at 250 ug/ml after 48-96 hr by agar cup diffusion method; conditions: read-out: DIZ
Aspergillus clavatus [36] = test: Antimicrobial activity against Aspergillus clavatus MTCC 1323 assessed as diameter of growth inhibition zone at 50 ug/ml after 48-96 hr by agar cup diffusion method; conditions: read-out: DIZ
Trichophyton rubrum [37] = test: Antimicrobial activity against Trichophyton rubrum MTCC 296 assessed as diameter of growth inhibition zone at 25 ug/ml after 48-96 hr by agar cup diffusion method; conditions: read-out: DIZ
Candida albicans [38] = test: Antimicrobial activity against Candida albicans MTCC 227 by agar cup diffusion method
Pseudomonas aeruginosa [39] = test: Antimicrobial activity against Pseudomonas aeruginosa MTCC 1688 assessed as diameter of growth inhibition zone at 100 ug/ml after 18-24 hr by agar cup diffusion method; conditions: read-out: DIZ
Aspergillus clavatus [40] = test: Antimicrobial activity against Aspergillus clavatus MTCC 1323 by agar cup diffusion method
Trichophyton rubrum [41] = test: Antimicrobial activity against Trichophyton rubrum MTCC 296 assessed as diameter of growth inhibition zone at 250 ug/ml after 48-96 hr by agar cup diffusion method; conditions: read-out: DIZ
Penicillium [42] = test: Antimicrobial activity against Penicillium wild strain assessed as diameter of growth inhibition zone at 50 ug/ml after 48-96 hr by agar cup diffusion method; conditions: read-out: DIZ
Staphylococcus aureus [43] = test: Antimicrobial activity against Staphylococcus aureus MTCC 96 by agar cup diffusion method
Aspergillus clavatus [44] = test: Antimicrobial activity against Aspergillus clavatus MTCC 1323 assessed as diameter of growth inhibition zone at 100 ug/ml after 48-96 hr by agar cup diffusion method; conditions: read-out: DIZ
Candida albicans [45] = test: Antimicrobial activity against Candida albicans MTCC 227 assessed as diameter of growth inhibition zone at 50 ug/ml after 48-96 hr by agar cup diffusion method; conditions: read-out: DIZ

O=C(/C=C/c1ccc([N+](=O)[O-])cc1)C1C(=O)NC(=S)NC1=O
zone of inhibition at 250 µg/mL (Streptococcus pyogenes [1]): 23 mm | zone of inhibition at 100 µg/mL (Staphylococcus aureus [2]): 18 mm | MBC (Streptococcus pyogenes [3]): 100 µg/mL (≈ 313 µM) | MIC (Streptococcus pyogenes [3]): 100 µg/mL (≈ 313 µM) | zone of inhibition at 25 µg/mL (Escherichia coli [4]): 12 mm | zone of inhibition at 100 µg/mL (Klebsiella pneumoniae [5]): 15 mm | zone of inhibition at 250 µg/mL (Penicillium [6]): 25 mm | zone of inhibition at 25 µg/mL (Klebsiella pneumoniae [7]): 11 mm | MBC (Klebsiella pneumoniae [8]): 200 µg/mL (≈ 626 µM) | MIC (Klebsiella pneumoniae [8]): 200 µg/mL (≈ 626 µM) | zone of inhibition at 50 µg/mL (Escherichia coli [9]): 15 mm | zone of inhibition at 250 µg/mL (Aspergillus clavatus [10]): 24 mm | MBC (Escherichia coli [11]): 500 µg/mL (≈ 1570 µM) | MIC (Escherichia coli [11]): 250 µg/mL (≈ 783 µM) | zone of inhibition at 50 µg/mL (Pseudomonas aeruginosa [12]): 13 mm | zone of inhibition at 25 µg/mL (Candida albicans [13]): 20 mm | zone of inhibition at 50 µg/mL (Streptococcus pyogenes [14]): 15 mm | zone of inhibition at 50 µg/mL (Klebsiella pneumoniae [15]): 13 mm | zone of inhibition at 25 µg/mL (Staphylococcus aureus [16]): 11 mm | zone of inhibition at 100 µg/mL (Escherichia coli [17]): 19 mm | zone of inhibition at 250 µg/mL (Klebsiella pneumoniae [18]): 16 mm | zone of inhibition at 25 µg/mL (Streptococcus pyogenes [19]): 12 mm | zone of inhibition at 100 µg/mL (Penicillium [20]): 23 mm | MBC (Pseudomonas aeruginosa [21]): 250 µg/mL (≈ 783 µM) | MIC (Pseudomonas aeruginosa [21]): 250 µg/mL (≈ 783 µM) | zone of inhibition at 25 µg/mL (Aspergillus clavatus [22]): 20 mm | zone of inhibition at 250 µg/mL (Escherichia coli [23]): 23 mm | zone of inhibition at 100 µg/mL (Streptococcus pyogenes [24]): 19 mm | zone of inhibition at 50 µg/mL (Trichophyton rubrum [25]): 22 mm | zone of inhibition at 100 µg/mL (Candida albicans [26]): 25 mm | zone of inhibition at 250 µg/mL (Pseudomonas aeruginosa [27]): 20 mm | zone of inhibition at 50 µg/mL (Staphylococcus aureus [28]): 13 mm | zone of inhibition at 25 µg/mL (Pseudomonas aeruginosa [29]): 11 mm | zone of inhibition at 25 µg/mL (Penicillium [30]): 21 mm | zone of inhibition at 250 µg/mL (Staphylococcus aureus [31]): 20 mm | zone of inhibition at 100 µg/mL (Trichophyton rubrum [32]): 23 mm | MFC (Penicillium [33]): 500 µg/mL (≈ 1570 µM) | MIC (Penicillium [33]): 500 µg/mL (≈ 1570 µM) | MFC (Trichophyton rubrum [34]): 1000 µg/mL (≈ 3130 µM) | MIC (Trichophyton rubrum [34]): 1000 µg/mL (≈ 3130 µM) | zone of inhibition at 250 µg/mL (Candida albicans [35]): 25 mm | zone of inhibition at 50 µg/mL (Aspergillus clavatus [36]): 21 mm | zone of inhibition at 25 µg/mL (Trichophyton rubrum [37]): 20 mm | MFC (Candida albicans [38]): 1000 µg/mL (≈ 3130 µM) | MIC (Candida albicans [38]): 1000 µg/mL (≈ 3130 µM) | zone of inhibition at 100 µg/mL (Pseudomonas aeruginosa [39]): 18 mm | MFC (Aspergillus clavatus [40]): 1000 µg/mL (≈ 3130 µM) | MIC (Aspergillus clavatus [40]): 1000 µg/mL (≈ 3130 µM) | zone of inhibition at 250 µg/mL (Trichophyton rubrum [41]): 25 mm | zone of inhibition at 50 µg/mL (Penicillium [42]): 21 mm | MBC (Staphylococcus aureus [43]): 200 µg/mL (≈ 626 µM) | MIC (Staphylococcus aureus [43]): 125 µg/mL (≈ 391 µM) | zone of inhibition at 100 µg/mL (Aspergillus clavatus [44]): 22 mm | zone of inhibition at 50 µg/mL (Candida albicans [45]): 21 mm
